Publication PMC12668308, “A Novel Antimalarial Agent that Inhibits Protein Synthesis in Plasmodium falciparum” (Angewandte Chemie (International Ed. in English), 2025)
“And” between values parts separate entries of the source, which are not always exact repeats. Equal entries are not always repeated.

What was measured:
[1] = molecular target: Aquaglyceroporin (W7K5E1) (Plasmodium falciparum, UniProt Q8II36); experiment: iSPP profiling, P. falciparum lysate; type: binding; conditions: 100 µM compound 34
Method: (§1) P. falciparum NF54 lysates were extracted as described in ^[26^] . The parasite asynchronous culture was extracted once 3-5% parasitemia was reached. Saponin lysis was done as described in 2.2.10. Once the parasite pellet was obtained, 2.5 volumes of ice-cold lysis buffer (50 mM Tris/HCl pH 7.5 (Avantor), 5% glycerol (Sigma-Aldrich), 150 mM NaCl (Carl Roth), 1.5 mM MgCl2 (Sigma-Aldrich), 1 mM DTT (Carl Roth), 0.8% IGEPAL CA-630 (Sigma-Aldrich), 1X Halt Protease and Phosphatase Inhibitor-Cocktails EDTA-free (Thermo Fisher Scientific)) was added to the parasite pellet. The lysate solution was subjected to three cycles of flash freeze-thaw with liquid nitrogen and ddH2O at RT. The lysates were centrifuged at 20,000 g for 20 minutes at 4 °C. The soluble protein fraction (supernatant) was collected and the protein content was quantified using the BCA assay (Pierce™ BCA Protein Assay Kit, Thermo Fisher Scientific). The lysate was stored at -80 °C until further use.
(§2) The P. falciparum lysate was thawed on ice and diluted to 0.8 mg/mL. The lysate was aliquoted, and each aliquot was incubated with either a vehicle control (DMSO), 34 (dissolved in DMSO), or varying concentrations of 31 (dissolved in DMSO) at 0.01 µM, 0.1 µM, 10 µM, 50 µM, and 100 µM. Subsequently, the samples were incubated at room temperature for 30 minutes using a rotating mixer. After distribution into a 96-well plate, the samples were treated with increasing concentrations of A.E.A. (v/v) ranging from 14% to 28% (14, 16, 18, 20, 22, 24, 26, and 28%). Following a 20-minute incubation at 37°C with shaking at 750 rpm, the samples were centrifuged at 4400 g for 35 minutes to remove precipitated proteins. The soluble fractions were then pooled in equal volumes into a single sample using the Bravo Automated Liquid Handling Platform. […]
(§3) The raw LFQ-DIA intensity values of biological replicates across all conditions were normalized to the median abundance using Excel. […] Dose-dependent curves were generated using normalized protein intensity values, expressed as a ratio to the vehicle control. […]

[2] = tested on: 3-hydroxyacyl-[acyl-carrier-protein] dehydratase (W7K0B9); experiment: iSPP profiling, P. falciparum lysate; type: binding; conditions: 100 µM compound 34
Method: as §1, §2, §3

[3] = molecular target: Phosphatidylinositol 4-kinase (W7K9N9) (Plasmodium falciparum, UniProt W7K9N9); experiment: iSPP profiling, P. falciparum lysate; type: binding; conditions: 100 µM compound 34
Method: as §1, §2, §3

3D7^Cas9 pfmdr1 G182S = type: cell-based, Plasmodium falciparum; conditions: 3D7^Cas9 pfmdr1 G182S vs 3D7^WT
Method: ^[a] 72-h [^3H] hypoxanthhine incorporation assay; Data is expressed as mean±s.d.. The assay was performed in three independent biological experiments, each in biological duplicates.
P. falciparum asexual blood stage parasites were cultured in human red blood cells (RBC, Blutspende SRK, Zurich) at a hematocrit of 5% in RPMI 1640 medium. The RPMI 1640 medium (ThermoFisher Scientific #51800−043) was supplemented with the following: 24 mM NaHCO3 (pH 7.3, Sigma-Aldrich #31437−500G-R), 25 mM Hepes (Sigma-Aldrich #H4034−500G), 0.36 mM hypoxanthine (Sigma-Aldrich # H9377−25G), 100 µg mL^-1 neomycin (Sigma-Aldrich #N6386−100G) and 0.5% Albumax II (Thermo Fisher #11021−045). Additionally, 2 mM choline chloride (279 mg/L, Sigma-Aldrich #C7527−100G) was added to the culture to block the induction of sexual commitment as described. ^[31^] The RPMI 1640 medium and components were dissolved in water (Milli-Q purified), stirred for at least 3 h, and then sterile filtered (0.22 μm pore size) with a bottle top filter (Corning # 431118). Parasite cultures were maintained in an atmosphere of 3% O2, 4% CO2, and 93% N2 in air-tight chambers at 37 °C. The [^3H]-hypoxanthine incorporation assay was used to test compound activity in the specific parasite lines as described.^[32^] Briefly, compounds were dissolved in DMSO (10 mM) and diluted in a hypoxanthine-free culture medium. A limiting dilution was performed over a 64-fold range (6-step twofold dilution) in a 96-well plate in duplicates. For every starting concentration, a limiting dilution was performed over a 64-fold range (6-step twofold dilution) in a 96-well plate in two biological duplicates. Parasites were added at 100 µL to each well containing the compound to obtain a final parasitemia of 0.3% and haematocrit of 1.25%. The plates were incubated for 48 h before 0.25 µCi of [^3H]-hypoxanthine was added per well for an additional 24 h. Parasites were harvested on a glass-fiber filter with a Microbeta FilterMate cell harvester (Perkin Elmer, Waltham, USA) and radioactivity was counted using a MicroBeta2 liquid scintillation counter (Perkin Elmer, Waltham, US). The results were recorded, processed by subtraction of the mean background signal obtained from the uninfected RBC controls and expressed as percentage of untreated controls. The fifty percent inhibitory concentration (IC50) was calculated by using nonlinear, four parameter (variable slope) curve fitting as described ^[33^] after importing into GraphPad Prism (version 8.3.0).
The P. falciparum 3D7 wild type parasites in the ring stage were transfected as described.^[20] Infected RBCs collected from a 5 ml culture of synchronous ring stage parasites (5-6% parasitemia at ) were added to 250 µl of packed RBCs and were co-transfected with 50µg of Cas9 and 50 µg of donor plasmids using a Bio-Rad Gene Pulser Xcell Electroporation System (single exponential pulse, 310 V, 250 µF). 24 hours post-transfection, 5 nM WR99210 (MedChemExpress #HY-116387) was added to the culture medium for six days to select for gene-edited parasites, and henceforth parasites were maintained in normal culture medium until a stably propagating parasite population was obtained. After ~4 weeks post-transfection, stably propagating parasite population were obtained. The transgenic parasite line (3D7^pfmdr1 G182S) was cloned out using an established plaque assays via limiting dilution.^[35^] […]

Phosphatidylinositol 4-kinase (W7K9N9), sequence (W7K9N9 entry or part of it): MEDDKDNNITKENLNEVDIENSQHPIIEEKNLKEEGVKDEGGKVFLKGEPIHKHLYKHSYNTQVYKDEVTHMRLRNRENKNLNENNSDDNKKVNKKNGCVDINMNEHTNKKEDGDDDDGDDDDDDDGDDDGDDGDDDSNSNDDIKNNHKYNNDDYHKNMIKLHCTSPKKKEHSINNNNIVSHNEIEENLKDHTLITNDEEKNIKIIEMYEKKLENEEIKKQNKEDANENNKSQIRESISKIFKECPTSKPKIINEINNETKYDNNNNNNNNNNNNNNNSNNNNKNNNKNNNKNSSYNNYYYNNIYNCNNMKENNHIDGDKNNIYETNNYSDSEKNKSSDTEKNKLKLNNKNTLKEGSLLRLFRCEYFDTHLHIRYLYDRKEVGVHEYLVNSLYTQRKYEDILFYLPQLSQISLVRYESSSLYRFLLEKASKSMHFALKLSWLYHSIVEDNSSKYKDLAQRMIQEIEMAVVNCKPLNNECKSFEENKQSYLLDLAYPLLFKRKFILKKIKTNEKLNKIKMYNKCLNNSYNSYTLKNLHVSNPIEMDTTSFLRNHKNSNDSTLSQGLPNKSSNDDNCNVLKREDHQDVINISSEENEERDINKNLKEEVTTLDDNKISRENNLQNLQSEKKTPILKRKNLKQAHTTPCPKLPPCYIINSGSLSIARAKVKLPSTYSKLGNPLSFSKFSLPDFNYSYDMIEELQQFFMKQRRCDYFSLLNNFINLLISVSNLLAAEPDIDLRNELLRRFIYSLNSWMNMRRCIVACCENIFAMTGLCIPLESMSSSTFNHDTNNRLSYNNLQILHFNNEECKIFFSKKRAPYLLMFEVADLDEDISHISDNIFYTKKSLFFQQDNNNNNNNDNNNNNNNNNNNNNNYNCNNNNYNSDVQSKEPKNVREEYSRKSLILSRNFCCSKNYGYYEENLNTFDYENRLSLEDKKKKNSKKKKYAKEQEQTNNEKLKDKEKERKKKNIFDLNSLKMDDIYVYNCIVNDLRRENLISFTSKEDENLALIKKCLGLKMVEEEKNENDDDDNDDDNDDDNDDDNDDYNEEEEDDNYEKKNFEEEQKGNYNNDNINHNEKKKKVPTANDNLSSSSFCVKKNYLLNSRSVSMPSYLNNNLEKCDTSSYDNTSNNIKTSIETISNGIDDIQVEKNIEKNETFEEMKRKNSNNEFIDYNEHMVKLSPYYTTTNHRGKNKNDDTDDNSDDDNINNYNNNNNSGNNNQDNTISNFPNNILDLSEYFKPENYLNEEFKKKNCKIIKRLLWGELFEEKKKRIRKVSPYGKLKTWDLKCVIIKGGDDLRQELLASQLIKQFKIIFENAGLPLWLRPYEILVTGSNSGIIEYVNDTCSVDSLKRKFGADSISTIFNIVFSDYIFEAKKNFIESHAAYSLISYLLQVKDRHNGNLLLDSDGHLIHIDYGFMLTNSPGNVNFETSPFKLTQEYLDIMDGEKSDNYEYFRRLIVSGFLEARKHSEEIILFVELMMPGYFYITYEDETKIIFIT
Aquaglyceroporin (W7K5E1), sequence (Q8II36 whole entry, one chain of several): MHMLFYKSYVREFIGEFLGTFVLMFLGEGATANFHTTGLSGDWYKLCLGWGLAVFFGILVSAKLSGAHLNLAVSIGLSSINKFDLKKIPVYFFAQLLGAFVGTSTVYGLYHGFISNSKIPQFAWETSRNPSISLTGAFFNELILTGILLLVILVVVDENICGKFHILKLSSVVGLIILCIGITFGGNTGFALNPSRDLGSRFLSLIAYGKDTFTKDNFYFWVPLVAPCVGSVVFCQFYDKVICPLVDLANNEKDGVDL

| Compound | log2FC [1] | log2FC [2] | log2FC [3] | IC50 fold shift relative to 3D7^WT strain (3D7^Cas9 pfmdr1 G182S) |
| --- | --- | --- | --- | --- |
| O=C(Nc1cc(CN2CCOCC2)ccc1F)c1cccc(Oc2cc(C(F)(F)F)ccn2)c1 [Compound 34, N-(2-Fluoro-5-(morpholinomethyl)phenyl)-3-((4-(trifluoromethyl)pyridin-2-yl)oxy)benzamide] | 0.4199 | 0.431 | 0.5024 |  |
| CN1CCN(Cc2ccc(O)c(NC(=O)c3cccc(Oc4cc(C(F)(F)F)ccn4)c3)c2)CC1 [Compound 31, N-(2-hydroxy-5-((4-methylpiperazin-1-yl)methyl)phenyl)-3-((4-(trifluoromethyl)pyridin-2-yl)oxy)benzamide] |  |  |  | 7 and 6.6 |
